Test results as given in patent US10954214B2 (Janssen Pharmaceutica NV, priority 2016, dated 2021).

Tests used:
[1] = test system: IL10 secretion by OCI-LY3 ABC-DLBCL cells; experiment: Human IL10 Mesoscale assay (OCI-LY3); type: cell-based; settings: Homo sapiens, 24 h
Summary of the method: (§1)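 Compounds tested from 15 μM to 58.6 nM (twofold, 9 concentrations) on 100,000 cells per well over 24 h at 37° C, without beta-mercaptoethanol. Secreted cytokine in supernatant detected by MSD electrochemiluminescence; scaling used DMSO as maximum and RN486 as full inhibition.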

[2] = test system: IL6 secretion by OCI-LY3 ABC-DLBCL cells; experiment: Human IL6 Mesoscale assay (OCI-LY3); type: cell-based; settings: Homo sapiens, 24 h
Summary of the method: as §1

[3] = target: full-length MALT1 protein (Strep-MALT1(1-824)-His) (Homo sapiens (Human), UniProt Q9UDY8); experiment: MALT1 Biochemical Protease Assay (Ac-LRSR-AMC substrate); settings: 10 nM FL MALT1, 200 μM Ac-LRSR-AMC, 4 h at RT; read-out: MALT1_Biochemical activity (Ac-LRSR-amc) IC50
Summary of the method: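 Full-length MALT1 pre-incubated with compounds (30 μM to 0.5 nM, 11 threefold steps) for 50 min at RT. After Ac-LRSR-AMC was added, the reaction ran 4 h at RT and AMC fluorescence was read. IC50 and Hill slope from curve fitting against no-enzyme and no-compound controls.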

Sequence of full-length MALT1 protein (Strep-MALT1(1-824)-His) (Q9UDY8 whole entry): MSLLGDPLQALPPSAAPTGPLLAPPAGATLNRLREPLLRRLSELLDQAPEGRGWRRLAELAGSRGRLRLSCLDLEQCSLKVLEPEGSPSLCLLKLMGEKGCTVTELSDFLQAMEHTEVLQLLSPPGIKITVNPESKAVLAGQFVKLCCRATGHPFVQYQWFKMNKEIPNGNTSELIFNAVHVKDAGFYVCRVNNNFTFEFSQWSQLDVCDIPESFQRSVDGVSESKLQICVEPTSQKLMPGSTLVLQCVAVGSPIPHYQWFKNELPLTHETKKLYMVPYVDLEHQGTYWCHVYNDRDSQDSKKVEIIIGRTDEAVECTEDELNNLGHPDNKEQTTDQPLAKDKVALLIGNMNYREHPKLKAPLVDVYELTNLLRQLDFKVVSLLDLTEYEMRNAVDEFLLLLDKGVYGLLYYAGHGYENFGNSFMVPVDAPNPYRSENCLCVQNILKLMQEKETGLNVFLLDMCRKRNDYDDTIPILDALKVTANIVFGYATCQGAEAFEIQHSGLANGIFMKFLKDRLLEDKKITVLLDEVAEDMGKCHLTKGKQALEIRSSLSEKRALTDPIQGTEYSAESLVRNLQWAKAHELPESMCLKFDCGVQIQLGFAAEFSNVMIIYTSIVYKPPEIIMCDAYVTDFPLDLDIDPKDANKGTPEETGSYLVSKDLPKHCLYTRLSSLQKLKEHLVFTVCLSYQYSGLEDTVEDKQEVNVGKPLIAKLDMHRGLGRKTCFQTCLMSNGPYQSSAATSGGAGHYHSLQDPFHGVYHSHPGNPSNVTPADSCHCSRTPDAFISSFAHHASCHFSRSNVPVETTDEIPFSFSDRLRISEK

Row | Structure (SMILES) | IC50 [1] [nM] | IC50 [2] [nM] | IC50 [3] [nM]
1 | O=C(Nc1cnc(-n2nc3ccncc3n2)c(Cl)c1)c1cnn(-c2cccc3ncccc23)c1C(F)(F)F [Cpd 162, N-(6-(2H-[1,2,3]triazolo[4,5-c]pyridin-2-yl)-5-chloropyridin-3-yl)-1-(quinolin-5-yl)-5-(trifluoromethyl)-1H-pyrazole-4-carboxamide] | 309 | 437 | 363
2 | O=C(Nc1cnc(-n2nnc3cnccc32)c(Cl)c1)c1cnn(-c2cccc3ncccc23)c1C(F)(F)F [Cpd 163, N-(6-(1H-[1,2,3]triazolo[4,5-c]pyridin-1-yl)-5-chloropyridin-3-yl)-1-(quinolin-5-yl)-5-(trifluoromethyl)-1H-pyrazole-4-carboxamide] | 71 | 95 | 224
3 | Nc1ncc(-n2ncc(C(=O)Nc3cncc(C(F)(F)F)c3)c2C(F)(F)F)c2ccccc12 [Cpd 342, 1-(1-aminoisoquinolin-4-yl)-5-(trifluoromethyl)-N-(5-(trifluoromethyl)pyridin-3-yl)-1H-pyrazole-4-carboxamide] | 132 | 162 | 115
4 | Cc1cc(NC(=O)c2cnn(-c3cccc4scnc34)c2C(F)(F)F)c(C)nc1-n1nccn1 [Cpd 300, 1-(benzo[d]thiazol-4-yl)-N-(2,5-dimethyl-6-(2H-1,2,3-triazol-2-yl)pyridin-3-yl)-5-(trifluoromethyl)-1H-pyrazole-4-carboxamide] | 339 | 525 | 4170
5 | Cc1nc(-n2nccn2)c(Cl)cc1NC(=O)c1cnn(-c2cnc(N)c3ccccc23)c1C(F)(F)F [Cpd 180, 1-(1-aminoisoquinolin-4-yl)-N-(5-chloro-2-methyl-6-(2H-1,2,3-triazol-2-yl)pyridin-3-yl)-5-(trifluoromethyl)-1H-pyrazole-4-carboxamide] | 81 | 79 | 26
6 | O=C(Nc1cnc(-c2nn[nH]n2)c(Cl)c1)c1cnn(-c2cccc3ncccc23)c1C(F)(F)F [Cpd 307, N-(5-chloro-6-(2H-tetrazol-5-yl)pyridin-3-yl)-1-(quinolin-5-yl)-5-(trifluoromethyl)-1H-pyrazole-4-carboxamide] | 427 | 447 | 58
7 | Cc1nc2c(-n3ncc(C(=O)Nc4cnc(-n5nccn5)c(C#N)c4)c3C(F)(F)F)cccc2o1 [Cpd 219, N-(5-cyano-6-(2H-1,2,3-triazol-2-yl)pyridin-3-yl)-1-(2-methylbenzo[d]oxazol-4-yl)-5-(trifluoromethyl)-1H-pyrazole-4-carboxamide] | 126 | 102 | 2690
8 | O=C(Nc1cnc(-n2ccnn2)c(C(F)(F)F)c1)c1cnn(-c2cccc3ncccc23)c1C(F)(F)F [Cpd 283, N-(6-(1H-1,2,3-triazol-1-yl)-5-(trifluoromethyl)pyridin-3-yl)-1-(quinolin-5-yl)-5-(trifluoromethyl)-1H-pyrazole-4-carboxamide] | 550 | 851 | 123
9 | Cc1nc(-n2nccn2)c(Cl)cc1NC(=O)c1cnn(-c2cccc3scnc23)c1C(F)(F)F [Cpd 252, 1-(benzo[d]thiazol-4-yl)-N-(5-chloro-2-methyl-6-(2H-1,2,3-triazol-2-yl)pyridin-3-yl)-5-(trifluoromethyl)-1H-pyrazole-4-carboxamide] | 123 | 158 | 282
10 | CCc1nc(-n2nccn2)c(Cl)cc1NC(=O)c1cnn(-c2cccc3nccn23)c1C(F)(F)F [Cpd 195, N-(5-chloro-2-ethyl-6-(2H-1,2,3-triazol-2-yl)pyridin-3-yl)-1-(imidazo[1,2-a]pyridin-5-yl)-5-(trifluoromethyl)-1H-pyrazole-4-carboxamide] | 71 | 107 | 324
11 | Cc1cc(-n2nccn2)c(C#N)cc1NC(=O)c1cnn(-c2cccc3scnc23)c1C(F)(F)F [Cpd 298, 1-(benzo[d]thiazol-4-yl)-N-(5-cyano-2-methyl-4-(2H-1,2,3-triazol-2-yl)phenyl)-5-(trifluoromethyl)-1H-pyrazole-4-carboxamide] | 25 | 50 | 1350
12 | Cc1nc(-n2cccn2)c(Cl)cc1NC(=O)c1cnn(-c2cnc(N)c3ccccc23)c1C(F)(F)F [Cpd 336, 1-(1-aminoisoquinolin-4-yl)-N-(5-chloro-2-methyl-6-(1H-pyrazol-1-yl)pyridin-3-yl)-5-(trifluoromethyl)-1H-pyrazole-4-carboxamide] | 117 | 209 | 214
13 | O=C(Nc1ccncc1)c1cnn(-c2cccc3c(=O)[nH]ccc23)c1C(F)(F)F [Cpd 349, 1-(1-oxo-1,2-dihydroisoquinolin-5-yl)-N-(pyridin-4-yl)-5-(trifluoromethyl)-1H-pyrazole-4-carboxamide] | 60 | 79 | 13500
14 | O=C1CCC(c2ncc(-n3ncc(C(=O)Nc4cnc(-n5nccn5)c(Cl)c4)c3C(F)(F)F)c3ccccc23)N1 (stereo not drawn) [Cpd 369, N-(5-chloro-6-(2H-1,2,3-triazol-2-yl)pyridin-3-yl)-1-(1-(5-oxopyrrolidin-2-yl)isoquinolin-4-yl)-5-(trifluoromethyl)-1H-pyrazole-4-carboxamide] | 29 | 34 | 155
15 | Cc1cc(-n2nccn2)c(Cl)cc1NC(=O)c1cnn(-c2cnc(N)c3ccccc23)c1C(F)(F)F [Cpd 335, 1-(1-aminoisoquinolin-4-yl)-N-(5-chloro-2-methyl-4-(2H-1,2,3-triazol-2-yl)phenyl)-5-(trifluoromethyl)-1H-pyrazole-4-carboxamide] | 60 | 132 | 174
16 | O=C(Nc1cnc(-c2ncco2)c(Cl)c1)c1cnn(-c2ccc(F)c3ncccc23)c1C(F)(F)F [Cpd 288, N-(5-chloro-6-(oxazol-2-yl)pyridin-3-yl)-1-(8-fluoroquinolin-5-yl)-5-(trifluoromethyl)-1H-pyrazole-4-carboxamide] | 91 | 251 | 95
17 | O=C(Nc1ccnc(C(F)(F)F)c1)c1cnn(-c2cccn3nccc23)c1C(F)(F)F [Cpd 319, 1-(pyrazolo[1,5-a]pyridin-4-yl)-5-(trifluoromethyl)-N-(2-(trifluoromethyl)pyridin-4-yl)-1H-pyrazole-4-carboxamide] | 18 | 20 | 107

Second part, the compound after the results:

Row | IC50 [1] [nM] | IC50 [2] [nM] | IC50 [3] [nM] | Structure (SMILES)
18 | 12 | 17 | 138 | CN(C=O)Cc1ncc(-n2ncc(C(=O)Nc3cnc(-n4nccn4)c(Cl)c3)c2C(F)(F)F)c2ccccc12 [Cpd 373, N-(5-chloro-6-(2H-1,2,3-triazol-2-yl)pyridin-3-yl)-1-(1-((N-methylformamido)methyl)isoquinolin-4-yl)-5-(trifluoromethyl)-1H-pyrazole-4-carboxamide]
19 | 339 | 447 | 10 | COc1ccc2c(-n3ncc(C(=O)Nc4cnc(-n5nccn5)c(Cl)c4)c3C(F)(F)F)cccc2n1 [Cpd 420, N-(5-chloro-6-(2H-1,2,3-triazol-2-yl)pyridin-3-yl)-1-(2-methoxyquinolin-5-yl)-5-(trifluoromethyl)-1H-pyrazole-4-carboxamide]
20 | 427 | 589 | 170 | Cc1nc(-n2nccn2)c(Cl)cc1NC(=O)c1cnn(-c2cnc(N3CC(O)C3)c3sccc23)c1C(F)(F)F [Cpd 433, N-(5-chloro-2-methyl-6-(2H-1,2,3-triazol-2-yl)pyridin-3-yl)-1-(7-(3-hydroxyazetidin-1-yl)thieno[2,3-c]pyridin-4-yl)-5-(trifluoromethyl)-1H-pyrazole-4-carboxamide]
21 | 56 | 52 | 457 | Cc1ncc(NC(=O)c2cnn(-c3cnc(N)c4ccccc34)c2C(F)(F)F)cc1C(F)(F)F [Cpd 377, 1-(1-aminoisoquinolin-4-yl)-N-(6-methyl-5-(trifluoromethyl)pyridin-3-yl)-5-(trifluoromethyl)-1H-pyrazole-4-carboxamide]
22 | 81 | 79 | 170 | O=C(Nc1cnc(-n2nccn2)c(Cl)c1)c1cnn(-c2cnc(C3CC3)c3sccc23)c1C(F)(F)F [Cpd 435, N-(5-chloro-6-(2H-1,2,3-triazol-2-yl)pyridin-3-yl)-1-(7-cyclopropylthieno[2,3-c]pyridin-4-yl)-5-(trifluoromethyl)-1H-pyrazole-4-carboxamide]
23 | 112 | 162 | 62 | C[C@@H](O)c1ncc(-n2ncc(C(=O)Nc3cnc(-n4nccn4)c(Cl)c3)c2C(F)(F)F)c2ccccc12 (single isomer, unassigned) [Cpd 442, (*R)—N-(5-chloro-6-(2H-1,2,3-triazol-2-yl)pyridin-3-yl)-1-(1-(1-hydroxyethyl)isoquinolin-4-yl)-5-(trifluoromethyl)-1H-pyrazole-4-carboxamide]
24 | 912 | 1780 | 22 | N#Cc1cc(-n2ncc(C(=O)Nc3cnc(-n4nccn4)c(Cl)c3)c2C(F)(F)F)c2ccccc2n1 [Cpd 412, N-(5-chloro-6-(2H-1,2,3-triazol-2-yl)pyridin-3-yl)-1-(2-cyanoquinolin-4-yl)-5-(trifluoromethyl)-1H-pyrazole-4-carboxamide]
